Measurements from EP0705591A2, “Cyclic amidocarboxy surfactants, synthesis and use thereof” (STEPAN COMPANY, priority 1989, dated 1991).
Values belong to the molecule of their own block, whether it stands above or below them.

How the values were obtained:
[1] = Emulsion stability test (modified, xylene/water); format: physicochemical; settings: 0.5g surfactant, 90 mL deionized water, 5.0 mL xylene; second rocking sequence
Description: In order to obtain reproducible results, an emulsion stability test, modified from the standard used in the art for testing surfactants was developed. In the modified procedure, 0.5g of a select surfactant (instead of 1g) was dissolved in 90 mL of deionized water in a graduated cylinder containing 5.0 mL of xylene, which was then sealed and rocked between a vertical/horizontal position for 30 cycles, allowed to settle for about 5 to 10 minutes and subjected to the same rocking cycle with the results of the second sequence recorded (instead of the first sequence).

[2] = Thermal stability followed by IR spectroscopy; format: physicochemical; settings: for Conversion to the N-dodecylphthalimide: neat (100% actives), about 100°C
Description: Thermal stability studies were conducted with neat (100% actives) sample of ammonium N-dodecylphthalamate mulled on sodium chloride plates. […]

[3] = Bleach (chlorine ion) stability; format: physicochemical; settings: for formulation clarity / foaming characteristics: 2.0% actives surfactant, 4.0% actives NaOCl; for formulation clarity: 1.0% NaOH, 90°C water bath about 5 hours; for foaming characteristics: after about 5 hours at 90°C
Description: Select N-alkyl and N,N-dialkyl phthalamates were incorporated into a standard test formulation containing a common bleach. […] The standard formulation comprised 4.0% actives of NaOCl; 0.25% actives NaCl; 1.0% actives NaOH (50%); 2.0% actives surfactant and Q.S. 100% deionized water. 1. DOWFAX^R-2A1 is Dow Chemical Company's registered trademark for sodium branched C₁₂ diphenyloxide disulfonate. 2. MAKON^R- 10 is Stepan Company's registered trademark for a nonylphenol polyethoxylate.
The various formulations were individually placed in tightly capped jars and subjected to a 90°C water bath for about 5 hours and then observed for formulation clarity and foaming characteristics. Each sample was run in duplicate.

[4] = Crude oil emulsification/dispersion and pH reversibility; format: physicochemical
Description: Sodium N-dodecylphthalamate, sodium N-cocophthalamate, sodium N-isodecyloxypropylphthalamate and sodium N-isododecyloxypropylphthalamate, along with a control (tap water only), were evaluated as emulsifying and/or dispersing and/or suspending agents for a given, heavy (viscous) crude petroleum oil (Dome crude oil, David Field, California) in different water samples, one having a hardness (expressed as CaCO₃) of 150 ppm, another having a hardness of 500 ppm, along with a synthetic sea water (NaCl-containing tap water, 150 ppm). In addition, various admixtures of sodium N-dodecylphthalamate and lauryl amine oxide were similarly evaluated with the above petroleum crude oil and synthetic sea water for synergistic emulsification characteristics.
The respective surfactants were prepared as aqueous solutions with the various water samples at a concentration of about 0.1 percent actives. Measured samples (50 mL) of the surfactant solutions were placed in 100 mL graduated cylinders, 2 drops of the crude oil added, the cylinders stoppered and relatively vigorously shaken manually for about 10 to 20 seconds. The degree of emulsification/dispersion, suspension was noted and recorded The data is set for in Table VIII below.
At relatively high pH values (i.e., above about 7) emulsification of the crude oil readily occurred and at relatively how pH values (i.e., below about 5) de-emulsification of the crude oil readily occurred. A control was prepared from a sample of the 150 ppm hardness water without surfactant but with 2 drops of the above crude oil.
The foregoing cycle between relatively high pH and relatively low pH was repeated an additional three times, with essentially identical emulsification/de-emulsification results. During a low (4.9) pH de-emulsification cycle, separated crude oil was removed, by decantation and a pH of the remaining (used) phthalamic solution was adjusted to about 13.5 and fresh crude oil added. […] Upon addition of additional fresh sodium N-dodecylphthalamate, the emulsion re-formed.

[5] = Caustic stability (reflux with NaOH); format: physicochemical; settings: for ES*(mL/sec) (Emulsion Stability): reflux with an equivalent of NaOH
Description: In order to determine caustic stability of the phthalamates, 5g of octylphthalamic acid was dissolved in 450 mL of water containing an equivalent of NaOH. This mixture was heated at reflux for about 24 hours and five separate 90mL samples were withdrawn at 0 hours, 1 hour, 2 hours, 16.5 hours and 23.7 hours. The resulting individual samples were acidified and the sodium N-octylphthalamic acid was isolated and analyzed (filtered, dried, weighted and m.p. and neutralization equivalents were obtained).

[6] = Particulate material suspension; format: physicochemical
Description: In this test, potassium N-octadecylphthalamate was utilized as a suspending agent in a typical shampoo base with known particulate anti-dandruff materials, zinc pyrithione and coal tar. Particulate (about 500 mesh) zinc pyrithione and particulate (about 350 to 400 mesh) coal tar were suspended in shampoo base formulations and stored at room temperature, at about 1.6°C and at about 43.3°C.
About 2 percent potassium octadecylphthalamate was incorporated with about 50 to 70 percent particulate coal (average size about 200 mesh) and about 30 to 50 percent water at ambient temperature.

[7] = Solubility in various solvents (vehicles); format: physicochemical; design: key: I - INSOLUBLE; S - SOLUBLE; settings: 1% actives
Description: (§1) Sodium N-octadecylphthalamate, 1% actives, was evaluated for solubility in various solvents and under cold storage (4°C) and freeze-thaw conditions.

[8] = Cold storage and freeze-thaw stability of solutions; format: physicochemical; design: key: P - PASS; settings: 1% actives; for STABILITY FREEZE THAW: 3 freezing/thawing cycles; for STABILITY COLD STORAGE: 24 hours at 4 °C
Description: as §1

[9] = Emulsification in foodstuffs; settings: about 1% by weight, substituted for egg yolk
Description: Sodium N-octadecylphthalamate was added to a standard cup-cake recipe at actives levels of 0% (control), 1%, 2%, 3%, 4%, and 5%. The N-octadecylphthalamate was admixed into a typical batter as a partial replacement for the shortening, margarine or butter called for in the recipe, baked at a uniform temperature (about 176°C) and time (about 25 minutes). […] A mayonnaise formulation containing about 1% by weight, based on a 100% total weight of formulation, of sodium N-octadecylphthalamate was prepared, with the N-octadecylphthalamate being substituted for egg yolk in a given recipe. […] A dog food was prepared by admixing about 200g of "Generic" beef-flavored dog food with 3g of 100% actives sodium N-octadecylphthalamate. Samples of this dog food were exposed to various temperatures (i.e., 0°C, 43°C and 50°C).

[10] = Draves Wetting test; format: physicochemical; settings: tap water; active level of 0.1%
Description: (§2) Standard Ross-Miles Foaming and Draves Wetting tests were preformed on various fatty phthalamates with the results set forth in Table 1 below. In all tests, an active level of 0.1% was utilized.

[11] = Ross-Miles Foaming test; format: physicochemical; settings: tap water; active level of 0.1%
Description: as §2

[12] = 0.1% actives in 50 mL of 150 ppm hardness water

Molecule: CCCCCCCCCCCCNC(=O)c1ccccc1C(=O)[O-].[Na+] [Sodium N-dodecylphthalamate, Sodium N-Dodecylphthalamate]
Emulsion Break Rate [1]: 0.068 mL/s | thermal stability ([2]; 120°C): stabile | formulation clarity [3]: initially clear yellow but became cloudy and exhibited phase separation | pH values at which de-emulsification of the crude oil readily occurred [4, 12]: below 5 | pH values at which emulsification of the crude oil readily occurred [4, 12]: above 7 | emulsification of crude oil ([4]; 0.1% actives, 150 ppm hardness water, pH of 8.5): the oil readily emulsified | emulsification of crude oil ([4]; pH dropped to about 3.5): the emulsion broke | emulsification of crude oil ([4]; pH dropped to about 5.2): a slight flocculation noted | emulsification of crude oil ([4]; pH dropped to about 7.0): without noticeable de-emulsification | emulsification of crude oil ([4]; pH dropped with 1N HCl to about 2.6): the emulsion broke, almost instantly, with floccing | emulsification of crude oil ([4]; pH raised with 1N NaOH to about 13.4): an emulsified solution was noted | emulsification of crude oil ([4]; used solution, pH about 13.5, fresh crude oil added): very stabile emulsion was quickly formed

Molecule: CCCCCCCCNC(=O)c1ccccc1C(=O)O.OCCN(CCO)CCO [Triethanolammonium N-octylphthalamate]
Emulsion Break Rate [1]: 0.043 mL/s

Molecule: CCCCCCCCCCNC(=O)c1ccccc1C(=O)[O-].[Na+] [Sodium N-decylphthalamate]
Emulsion Break Rate [1]: 0.034 mL/s

formulation clarity [3]: clear yellow throughout the test | foaming characteristics [3]: unstabile | bleach stability ([3]; conclusion from the 90°C bleach test): good bleach stability
Molecule: CCCCCCCCCCCCN(C)C(=O)c1ccccc1C(=O)[O-].[Na+] [sodium N-methyl-N-dodecylphthalamate, Sodium N-Dodecyl-N-methylphthalamate]

Molecule: CCCCCCCCCCCCNC(=O)c1ccccc1C(=O)O.N [ammonium N-dodecylphthalamate, Ammonium N-Dodecylphthalamate]
Conversion to the N-dodecylphthalimide ([2]; 10 minutes): very apparent | Conversion to the N-dodecylphthalimide ([2]; 20 minutes): almost total conversion

Molecule: CCCCCCCCNC(=O)c1ccccc1C(=O)[O-].[Na+] [Sodium N-octylphthalamate]
Emulsion Break Rate [1]: 0.111 mL/s | pH at which stable ([5]; caustic environment, reflux about 24 hours): at least 10 | ES*(mL/sec) (Emulsion Stability) ([5]; sample at 0 hr): 0.0252 mL/s | ES*(mL/sec) (Emulsion Stability) ([5]; sample at 1 hr): 0.0325 mL/s | ES*(mL/sec) (Emulsion Stability) ([5]; sample at 2 hr): 0.0400 mL/s | ES*(mL/sec) (Emulsion Stability) ([5]; sample at 16.5 hr): 0.0690 mL/s | ES*(mL/sec) (Emulsion Stability) ([5]; sample at 23.7 hr): 0.108 mL/s

Molecule: CCCCCCCCCCNC(=O)c1ccccc1C(=O)O.OCCN(CCO)CCO [Triethanolammonium N-decylphthalamate]
Emulsion Break Rate [1]: 0.046 mL/s

Emulsion Break Rate [1]: 0.085 mL/s
Molecule: CCCCCCCCCCCCCCNC(=O)c1ccccc1C(=O)[O-].[Na+] [Sodium N-tetradecylphthalamate]

formulation clarity [3]: poor solubility, with phase separation | foaming characteristics [3]: no pre-bath or post-bath foam
Molecule: sodium N,N-dicocophthalamate

Molecule: CCCCCCCCCCCCCCCCCCNC(=O)c1ccccc1C(=O)[O-].[K+] [potassium N-octadecylphthalamate]
suspension of particulate coal in water ([6]; about 2 percent with about 50 to 70 percent coal (about 200 mesh), ambient temperature): free flowing, substantially homogeneous suspension | stability of zinc pyrithione suspension in shampoo base ([6]; after 5 days at 43.3°C): phase separation | stability of coal tar suspension in shampoo base ([6]; after 5 days at room temperature, at 1.6°C and at 43.3°C): excellent stability

Molecule: CCCCCCCCCCCCNC(=O)c1ccccc1C(=O)O.OCCN(CCO)CCO [Triethanolammonium N-dodeylphthalamate]
Emulsion Break Rate [1]: 0.039 mL/s

Molecule: CCCCCCCCCCCCCCCCCCNC(=O)c1ccccc1C(=O)[O-].[Na+] [Sodium N-octadecylphthalamate, Sodium N-Octadecylphthalamate]
imidation ([2]; 3.5 hours at 150°C): only a very small degree of imidation | imidation ([2]; 64 hours at 150°C): significant formation of N-octadecylphthalimide | APPEARANCE 24 HOURS @ RT^0 AFTER HEAT ([7]; vehicle AMMONYX^R LO): S | APPEARANCE 25^0C ([7]; vehicle AMMONYX^R LO): S | APPEARANCE 50^0C ([7]; vehicle AMMONYX^R LO): S | APPEARANCE 24 HOURS @ RT^0 AFTER HEAT ([7]; vehicle AMPHOSOL^R): S | APPEARANCE 25^0C ([7]; vehicle AMPHOSOL^R): I | APPEARANCE 50^0C ([7]; vehicle AMPHOSOL^R): S | APPEARANCE 24 HOURS @ RT^0 AFTER HEAT ([7]; vehicle MAKON^R 10): S | APPEARANCE 25^0C ([7]; vehicle MAKON^R 10): I | APPEARANCE 50^0C ([7]; vehicle MAKON^R 10): I | APPEARANCE 24 HOURS @ RT^0 AFTER HEAT ([7]; vehicle NINOL^R 40-CO): S | APPEARANCE 25^0C ([7]; vehicle NINOL^R 40-CO): I | APPEARANCE 50^0C ([7]; vehicle NINOL^R 40-CO): S | APPEARANCE 24 HOURS @ RT^0 AFTER HEAT ([7]; vehicle STEPANATE^R): I | APPEARANCE 25^0C ([7]; vehicle STEPANATE^R): I | APPEARANCE 50^0C ([7]; vehicle STEPANATE^R): I | STABILITY FREEZE THAW ([8]; vehicle AMMONYX^R LO): P | STABILITY COLD STORAGE ([8]; vehicle AMMONYX^R LO): P | STABILITY FREEZE THAW ([8]; vehicle AMPHOSOL^R): P | STABILITY COLD STORAGE ([8]; vehicle AMPHOSOL^R): P | STABILITY FREEZE THAW ([8]; vehicle MAKON^R 10): P | STABILITY COLD STORAGE ([8]; vehicle MAKON^R 10): P | STABILITY FREEZE THAW ([8]; vehicle NINOL^R 40-CO): P | STABILITY COLD STORAGE ([8]; vehicle NINOL^R 40-CO): P | mayonnaise emulsion stability [9]: excellent stability

Emulsion Break Rate [1]: 0.102 mL/s
Molecule: CCCCCCCCCCCCCCCCNC(=O)c1ccccc1C(=O)[O-].[Na+] [Sodium N-hexadecylphthalamate]

wetting time [10]: 4.5 s | foam height [11]: 5.5 cm
Molecule: CC(C)CCCCCCCCCOCCCNC(=O)c1ccccc1C(=O)[O-].[Na+] [sodium isododecyloxypropylphthalamate, Sodium N-Isododecyloxypropylphthalamate]
